From patent US20030017590A1, “PRODUCTION OF HUMAN CNS NEURONS FROM EMBRYONAL CARCINOMA CELLS USING CELL AGGREGATION METHOD” (priority 1999, published 2003)
Entries after “also recorded” stand apart in the source; their conditions may differ.

Columns and labels:
NT2 cells [1] = test: RA-induced neuronal differentiation of NT2 cell aggregates (phase contrast morphology); type: cell-based, human; settings: for number of neurons that could be prepared: NT2 aggregates
Experimental: NT2 cells were cultured as previously described (Pleasure, S. J. et al., 1992, J. Neurosci. 12:1802-1815). Briefly, cells were maintained in OptiMEMI-reduced serum medium (GIBCO, Palo Alto, Calif., USA) supplemented with 5% fetal bovine serum (FBS; GIBCO, Palo Alto, Calif., USA). When NT2 cells were differentiated by the standard protocol, NT2 cells were seeded at 2×10^6 cells per 75 cm^2 in Dulbecco's Modified Eagle's medium (high glucose formulation) (DMEM-HG; GIBCO, Palo Alto, Calif., USA) and were treated with a final concentration of 10 μM all-trans RA (SIGMA, St. Louis, Mo., USA). In the cell aggregation studies, cells were dislodged by trypsinization and were plated at 1×10^5 cells per ml into a 85-mm bacteriological grade petri dish in DMEM-HG supplemented 10% FBS. After incubation overnight at 37° C. in a 5% CO2 incubator, the aggregates were supplemented with a final concentration of 10 μM all-trans RA. The medium was replaced every two days. After 14 days of RA treatment, aggregates were plated onto tissue culture grade petri dish pre-coated with 10 μg/ml poly-D-lysine (PDL; SIGMA, St. Louis, Mo., USA), 10 μg/ml mouse laminin (LAM; GIBCO, Palo Alto, Calif., USA) and 0.1% gelatin (SIGMA, St. Louis, Mo., USA) in Dulbecco's Phosphate buffered saline (D-PBS; GIBCO, Palo Alto, Calif., USA). Following overnight incubation, aggregates were then cultured in DMEM-HG with 10% FBS supplemented with 1 μM cytosine D-arabinofuranoside (arac; SIGMA, St. Louis, Mo., USA) and 10 μM uridine (SIGMA, St. Louis, Mo., USA). After 3 days of incubation, neurons were detached by tapping gently on the side of the tissue culture plate, or by brief trypsinization, and replated on to a new pre-coated tissue culture plate. Incubation was continued in the presence of araC and uridine for another 4 days. Neurons obtained could be kept in DMEM supplemented with 10% FBS for more than 3 weeks.
To examine the effect of cell aggregation on RA-induced neuronal differentiation, NT2 cells were pre-aggregated as described above. After 14 days of RA treatment, aggregates were plated on PDL and LAM (PDL/LAM) coated plates. […] Phase bright neuron-like cells with long extended neurites continued to migrate out from the NT2 aggregates. At day 3 after replating, these cells grew on the surface of large-flattened cells (FIG. 1). […] However, neuron-like cells were subsequently overwhelmed by both undifferentiated NT2 cells and the differentiated large-flattened cells (Pleasure, S. J. et al., 1992, J. Neurosci. 12:1802-1815).
It is possible that the sustained requirement of RA for the neuronal differentiation of NT2 is indeed due to the lack of cell-cell interaction. To examine this possibility, NT2 cells were maintained as aggregates in bacteriological culture dish for 14 days and RA treatment was given only during the first few days of aggregation (1 to 5 days).

NT2 aggregates = test: Western blot of neuronal markers in RA-differentiated NT2 aggregates; type: cell-based, human
Experimental: (§1) FIG. 5. Expression of neuronal markers in RA differentiated NT2 aggregates. NT2 cells were pre-aggregated by RA at concentration (10^−7 to 10^−5 M) for 14 days and replated onto PDL/LAM coated plates for two days. As control experiments, NT2 cells were plated at 2×10^5 cells/ml as monolayer cultures and differentiated with RA (10^−7 to 10^−5 M) for a total of 16 days. Total proteins were extracted and Western blot analysis was performed using antibodies specific against phosphorylated NF-M (NF-M-P; upper panel) and synapsin I (lower panel).
(§2) Cells were washed twice with ice-cold PBS followed by a wash with ice-cold PBS supplemented with 1 mM sodium orthovanadate (NaOV; SIGMA, St. Louis, Mo., USA). Cells were then lysed with lysis buffer (50 mM Tris.Cl at pH8, 150 mM NaCl, 1% TX, 1×aprotinin; SIGMA, St. Louis, Mo., USA, 1 mM PMSF; GIBCO, Palo Alto, Calif., USA and 1 mM NaOV) at 4° C. for 15 minutes. Lysates were collected and centrifuged to remove cell debris. Protein assays were performed with Bio-Rad Protein Assay Kit based on the Bradford dye-binding procedure (BIO-RAD, Hercules, Calif., USA). Protein (typically 10 μg) were separated by SDS-PAGE and then electro-transferred to nitrocellulose membrane (MSI, Westborough, Mass., USA). After blocking at room temperature for 1 hr using TBS-Tween containing 5% non-fat milk, membranes were incubated overnight at 4° C. with primary antibodies in TBS-Tween containing 5% non-fat milk. Membranes were then incubated with horseradish peroxidase conjugated secondary antibodies (1:2000 dilution; AMERSHAM, Arlington Heights, Ill., USA) for 1 hour at room temperature. After three washes with TBS-Tween, immunoreactive bands were detected using ECL kit (AMERSHAM, Arlington Heights, Ill., USA).
To study whether the high concentrations of RA required for inducing neuronal differentiation of NT2 cells could be lowered under the condition of cell aggregation, we exposed the NT2 aggregates to reduced concentration of RA (0.1 to 10 μM). Following treatment of NT2 aggregates with RA for 14 days, these cells were plated onto PDL/LAM coated plates in RA-free medium, and total protein samples were prepared 2 days later. As control, total protein samples were extracted from monolayer NT2 cultures treated with 16 days of RA (0.1 to 10 μM).

monolayer NT2 cells = test: Western blot of neuronal markers in RA-treated monolayer NT2 cultures; type: cell-based, human; settings: RA 0.1 to 10 μM for 16 days
Experimental: as §1
as §2, with “Mass., USA). […] After three” for “Mass., USA). After blocking at room temperature for 1 hr using TBS-Tween containing 5% non-fat milk, membranes were incubated overnight at 4° C. with primary antibodies in TBS-Tween containing 5% non-fat milk. Membranes were then incubated with horseradish peroxidase conjugated secondary antibodies (1:2000 dilution; AMERSHAM, Arlington Heights, Ill., USA) for 1 hour at room temperature. After three”, “Ill., USA). […]” for “Ill., USA).”

NT2 cells [2] = settings: standard protocol for differentiation; cited from earlier work
NT2 cells [3] = test: Indirect immunofluorescent analysis of NT2 neurons differentiated by cell aggregation; type: cell-based, human; settings: RA 5 μM for 14 days, two days after replating in RA-free medium
Experimental: NT2 cells were aggregated and differentiated by RA (5 μM) for 14 days. Two days after replating in RA-free medium, differentiated NT2 cells were fixed and stained with the antibodies specific against TH (upper panel), and phosphorylated NF-M (lower panel). Scale bar, 50 μm.
For immunofluorescent analysis, control or differentiated aggregates cultures were fixed with 4% paraformaldehyde (FLUKA, Hauppauge, N.Y., USA) in PBS. After blocking with 4% normal serum (NS; VECTOR LAB, Burlingame, Calif., USA) in PBS containing 0.4% Triton-X (TX; BOERINGER MANNEHEIM, Mannheim, Germany), and 1% bovine serum albumin (BSA; SIGMA, St. Louis, Mo., USA), aggregates were incubated overnight at 4° C. with primary antibodies diluted in antibody diluent (1% NS, 0.4% TX and 1% BSA). Incubation with secondary antibodies was performed at room temperature for at least 2 hours. Cells were visualized under fluorescence microscope (ZEISS, Jena, Germany). […]
In order to verify whether the phase-bright cells obtained following cell aggregation were neurons, immunocytochemical analysis was performed. High-molecular weight neurofilament proteins (200 kDa) were detected in the neurites of the neurons (FIG. 2). […] In addition, substance P (SP) was detected in both the cell bodies and the neurites of the neurons (FIG. 2). […]

[4] = NT2 aggregates, RA 0.1 to 10 μM

Compound: CC1=C(/C=C/C(C)=C/C=C/C(C)=C/C(=O)O)C(C)(C)CCC1 [RA, all-trans retinoic acid]
- formation of neurons after brief RA treatment (NT2 cells [1]; 2 to 3 days of RA treatment (10 μM), cells maintained as aggregates for 14 days): Neurons were observed
- neurite outgrowth from NT2 aggregates (NT2 cells [1]; 14 days of RA treatment (10 μM), plated on PDL/LAM, overnight incubation without RA): Neurite outgrowth was initiated
- number of neurons that could be prepared (NT2 cells [1]; 0.1 μM RA): almost no neurons were observed; also recorded: did not result in cells that resembled neurons
- number of neurons that could be prepared (NT2 cells [1]; 1 μM RA): only a few neurons could be observed
- time to formation of neurons (NT2 cells [1]; NT2 cells treated with RA as aggregates in bacteriological plates): ≤ 16 days
- extension of neurites from NT2 cells (NT2 cells [1]; RA for only 12 days, 2 days after plating on PDL/LAM): extension of neurites from NT2 cells was observed
- neuritic outgrowth of RA-treated aggregates (NT2 cells [1]; cell aggregation period less than 12 days): did not result in observable neuritic outgrowth
- expression level of phosphorylated NF-M proteins, aggregates versus monolayer (NT2 aggregates; NT2 aggregates at 0.1 μM RA versus monolayer NT2 cells at 10 μM RA): comparable expression level
- expression level of phosphorylated NF-M proteins versus RA concentration (NT2 aggregates; [4]): elevated with increased concentration of RA
- synapsin I protein expression (NT2 aggregates; [4]): High level of synapsin I protein expression was detected
- expression of phosphorylated NF-M proteins (NT2 aggregates; NT2 aggregates, RA 0.1 to 10 μM for 14 days, 2 days on PDL/LAM): could induce the expression of phosphorylated NF-M proteins
- expression of phosphorylated NF-M (monolayer NT2 cells): expressed phosphorylated NF-M only at higher concentrations of RA (1 or 10 μM)
- time until neuron-like cells observed after RA treatment (NT2 cells [2]): about five weeks
- expression of neuronal specific proteins (NF200, synapsin I, substance P, GABA) (NT2 cells [3]): expressed neuronal specific proteins
- expression of tyrosine hydroxylase (TH) (NT2 cells [3]): expressed tyrosine hydroxylase (TH)
